For nine molecules, TGI results are on record in PubChem BioAssay (NCI).

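Step 1: Grow cells in 96-well plates. Step 2: Expose to compound for 48 hours at 5 concentrations. Step 3: Interpolate endpoints linearly; if unreached, use highest concentration. TGI denotes the concentration required for complete inhibition of growth.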 Some results are limits rather than exact numbers.

Among the test systems are SK-MEL-28 melanoma; CAKI-1 renal; NCI/ADR-RES ovarian; PC-3 prostate; UACC-62 melanoma; MDA-N; SF-268 CNS; SK-MEL-2 melanoma; LOX IMVI melanoma; HT29 colon; NCI-H23 lung; SF-295 CNS; COLO 205 colon; NCI-H226 lung; UO-31 renal; T-47D breast; HOP-92 NSCLC.
Common to all, as to assay: inhibition of tumour cell growth, NCI panel, 48 h

`O=c1[nH]nc(Cc2ccccc2)n1Nc1ccccc1`: the TGI with SK-MEL-28 melanoma, with CAKI-1 renal, with NCI/ADR-RES ovarian, in the assay with PC-3 prostate, in the assay with UACC-62 melanoma and in the assay on MDA-N was more than 100 µM each time. Besides, the TGI in the assay with SF-268 CNS, with SK-MEL-2 melanoma, in the assay with LOX IMVI melanoma, with HT29 colon, with NCI-H23 lung and with SF-295 CNS was more than 100 µM in each case. Moreover, the TGI with COLO 205 colon, with NCI-H226 lung and in the assay with UO-31 renal was more than 100 µM each time.

For the molecule `CCOC(=O)C(NC(=O)Nc1ccc(Cl)c(Cl)c1)C(F)(F)F` (stereo unspecified), the TGI with T-47D breast, in the assay on SK-MEL-28 melanoma, in the assay with NCI/ADR-RES ovarian, in the assay with PC-3 prostate, in the assay on MDA-N and with SF-268 CNS was more than 100 µM each time. For the same molecule, the TGI with SK-MEL-2 melanoma, with LOX IMVI melanoma, in the assay on HT29 colon, in the assay with NCI-H23 lung, with COLO 205 colon and with UO-31 renal was more than 100 µM throughout.

On to `CCCCOC(=O)C(O)Cc1ccoc1` (stereo unspecified), for which the TGI with T-47D breast, in the assay with SK-MEL-28 melanoma, in the assay with NCI/ADR-RES ovarian, in the assay with PC-3 prostate, with UACC-62 melanoma and in the assay on MDA-N was more than 100 µM throughout. Also, the TGI in the assay on SF-268 CNS, with SK-MEL-2 melanoma, in the assay on LOX IMVI melanoma, with HT29 colon, with NCI-H23 lung and in the assay on SF-295 CNS was more than 100 µM throughout. The TGI with COLO 205 colon, in the assay with NCI-H226 lung and in the assay on UO-31 renal was more than 100 µM in each case.

Take `COc1cc(COC(=O)N2CCC2C(=O)O)c([N+](=O)[O-])cc1OC` (stereo unspecified): the TGI in the assay on T-47D breast, in the assay on SK-MEL-28 melanoma, with NCI/ADR-RES ovarian, in the assay with PC-3 prostate, in the assay on UACC-62 melanoma and in the assay with MDA-N was more than 100 µM throughout. For the same molecule, the TGI in the assay on SF-268 CNS, in the assay on HT29 colon, in the assay with NCI-H23 lung, with HOP-92 NSCLC, with SF-295 CNS and in the assay with COLO 205 colon was more than 100 µM in each case. For the same molecule, the TGI in the assay on NCI-H226 lung and with UO-31 renal was more than 100 µM in each case.

Regarding `CC(=O)OCC1=C(C)C(OC(=O)C(OC(C)=O)[C@@H](NC(=O)c2ccccc2)c2ccccc2)CCC1(C)C` (stereo partly specified), the TGI in the assay on T-47D breast, with SK-MEL-28 melanoma, in the assay on CAKI-1 renal, in the assay on NCI/ADR-RES ovarian, in the assay with UACC-62 melanoma and with MDA-N was more than 100 µM each time. For the same molecule, the TGI with SF-268 CNS, in the assay with LOX IMVI melanoma, with HT29 colon, with NCI-H23 lung, in the assay with SF-295 CNS and in the assay on COLO 205 colon was more than 100 µM in each case. Also, the TGI with NCI-H226 lung and in the assay on UO-31 renal was more than 100 µM throughout.

`N#CC1(C#N)NC(c2ccsc2)C(C#N)(C#N)NC1c1ccsc1` (stereo unspecified): the TGI in the assay on SK-MEL-28 melanoma, with CAKI-1 renal, in the assay on NCI/ADR-RES ovarian, with PC-3 prostate, in the assay on UACC-62 melanoma and in the assay with MDA-N was more than 100 µM each time. For the same molecule, the TGI in the assay on SF-268 CNS, in the assay on SK-MEL-2 melanoma, in the assay with LOX IMVI melanoma, in the assay with HT29 colon, in the assay on NCI-H23 lung and in the assay with HOP-92 NSCLC was more than 100 µM in each case. Further, the TGI with SF-295 CNS, in the assay with COLO 205 colon, with NCI-H226 lung and with UO-31 renal was more than 100 µM each time.

As to `COC(=O)CCC12CCC(O1)c1ccccc12` (stereo unspecified), the TGI with T-47D breast, in the assay with SK-MEL-28 melanoma, in the assay with CAKI-1 renal, in the assay with NCI/ADR-RES ovarian, in the assay on PC-3 prostate and in the assay with UACC-62 melanoma was more than 100 µM each time. Besides, the TGI in the assay with MDA-N, in the assay on LOX IMVI melanoma, in the assay with HT29 colon, with NCI-H23 lung, with HOP-92 NSCLC and in the assay with SF-295 CNS was more than 100 µM each time. Moreover, the TGI in the assay with COLO 205 colon, with NCI-H226 lung and with UO-31 renal was more than 100 µM each time.

Consider `CC1C[C@]2(C)C(=O)N(c3ccccc3)C(=N)[C@@H]2N(C)c2ccccc21` (stereo partly specified), for which the TGI in the assay with T-47D breast, with SK-MEL-28 melanoma, in the assay with CAKI-1 renal, in the assay with NCI/ADR-RES ovarian, with PC-3 prostate and with UACC-62 melanoma was more than 100 µM each time. In addition, the TGI in the assay with MDA-N, with SF-268 CNS, with SK-MEL-2 melanoma, with LOX IMVI melanoma, with HT29 colon and in the assay on NCI-H23 lung was more than 100 µM each time. In addition, the TGI in the assay with SF-295 CNS, with COLO 205 colon, in the assay on NCI-H226 lung and with UO-31 renal was more than 100 µM throughout.

With `COc1cc2c(c(OC)c1OC)-c1ccc(SC)cc1[C@H](OC(=O)c1ccccc1)CC2`, the TGI is more than 100 µM in the assay with T-47D breast; more than 100 µM in the assay on SK-MEL-28 melanoma; more than 100 µM in the assay with CAKI-1 renal; more than 100 µM in the assay with UACC-62 melanoma; 0.0222 µM in the assay on MDA-N; more than 100 µM in the assay with SF-268 CNS. Also, the TGI in the assay with SK-MEL-2 melanoma is more than 100 µM; with LOX IMVI melanoma, more than 100 µM; with NCI-H23 lung, more than 100 µM; in the assay on HOP-92 NSCLC, more than 100 µM; in the assay on SF-295 CNS, more than 100 µM; in the assay on COLO 205 colon it was 0.446 µM. Moreover, the TGI in the assay on NCI-H226 lung is 0.634 µM; with UO-31 renal, more than 100 µM.
